According to PubChem BioAssay (NCI):
Values joined by “and” are separate entries in the source; they are usually repeats but may differ in a detail not shown here. Equal values may be shown once.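 A five-concentration, 48-hour dose response in 96-well plates underlies each endpoint, interpolated linearly between surrounding concentrations. Abbreviation: GI50, concentration required for 50% inhibition of growth. TGI is the concentration that stops growth completely.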

Legend:
Assay in all cases: NCI tumour cell line growth inhibition, 48 h
786-0 renal = test system: 786-0 renal
MDA-N = test system: MDA-N
P388/ADR leukemia = test system: P388/ADR leukemia
BT-549 breast = test system: BT-549 breast
TK-10 renal = test system: TK-10 renal
HS 578T breast = test system: HS 578T breast
PC-3 prostate = test system: PC-3 prostate
T-47D breast = test system: T-47D breast
MDA-MB-231 breast = test system: MDA-MB-231 breast
A498 renal = test system: A498 renal
DU-145 prostate = test system: DU-145 prostate
M14 melanoma = test system: M14 melanoma
NCI-H226 lung = test system: NCI-H226 lung
ACHN renal = test system: ACHN renal
SR leukemia = test system: SR leukemia
MDA-MB-435 = test system: MDA-MB-435

Compound: COc1cccc2c1C(=O)c1c(O)c3c(c(O)c1C2=O)C[C@@](O)(C(=O)CO)C[C@@H]3OC1CC(N2CCOCC2)C(O)C(C)O1 (stereo partly drawn)
- GI50 (786-0 renal): < 13.1 nM
- TGI (786-0 renal): 611 nM
- TGI (MDA-N): 175 nM
- GI50 (P388/ADR leukemia): 2.5 nM
- TGI (BT-549 breast): 392 nM
- TGI (TK-10 renal): 2070 nM
- TGI (HS 578T breast): 228 nM
- TGI (PC-3 prostate): 241 nM
- TGI (T-47D breast): 1060 nM
- TGI (MDA-MB-231 breast): 433 nM
- TGI (A498 renal): 23.2 nM and 48.6 nM and 6.51 nM
- TGI (DU-145 prostate): 3370 nM
- TGI (M14 melanoma): 149 nM
- TGI (NCI-H226 lung): 8.66 nM and 28.3 nM and 4.55 nM
- GI50 (ACHN renal): 8.41 nM
- TGI (ACHN renal): 73.6 nM
- GI50 (SR leukemia): 5.53 nM
- TGI (MDA-MB-435): 195 nM
